Test results taken from ChEMBL document CHEMBL1128550, “Nonclassical 2,4-diamino-6-(aminomethyl)-5,6,7,8-tetrahydroquinazoline antifolates: synthesis and biological activities” (J Med Chem, 1995).
pIC50: −log10 of the molar value.

Tests used:
[1] = target: T1, Dihydrofolate reductase (Rattus norvegicus, UniProt Q920D2)
T1 sequence (Q920D2 whole entry): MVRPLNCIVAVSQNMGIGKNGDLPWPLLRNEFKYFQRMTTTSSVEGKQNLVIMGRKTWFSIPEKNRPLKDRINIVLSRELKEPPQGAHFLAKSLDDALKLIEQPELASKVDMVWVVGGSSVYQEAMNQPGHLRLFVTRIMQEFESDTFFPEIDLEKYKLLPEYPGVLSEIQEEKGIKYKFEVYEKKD
Description: Inhibitory activity against purified DHFR (Dihydrofolate reductase) from rat

[2] = target: T2, Bifunctional dihydrofolate reductase-thymidylate synthase (Toxoplasma gondii, UniProt Q07422); assay: Inhibitory activity against purified DHFR (Dihydrofolate reductase) from Toxoplasma gondii.
T2 sequence (Q07422 whole entry): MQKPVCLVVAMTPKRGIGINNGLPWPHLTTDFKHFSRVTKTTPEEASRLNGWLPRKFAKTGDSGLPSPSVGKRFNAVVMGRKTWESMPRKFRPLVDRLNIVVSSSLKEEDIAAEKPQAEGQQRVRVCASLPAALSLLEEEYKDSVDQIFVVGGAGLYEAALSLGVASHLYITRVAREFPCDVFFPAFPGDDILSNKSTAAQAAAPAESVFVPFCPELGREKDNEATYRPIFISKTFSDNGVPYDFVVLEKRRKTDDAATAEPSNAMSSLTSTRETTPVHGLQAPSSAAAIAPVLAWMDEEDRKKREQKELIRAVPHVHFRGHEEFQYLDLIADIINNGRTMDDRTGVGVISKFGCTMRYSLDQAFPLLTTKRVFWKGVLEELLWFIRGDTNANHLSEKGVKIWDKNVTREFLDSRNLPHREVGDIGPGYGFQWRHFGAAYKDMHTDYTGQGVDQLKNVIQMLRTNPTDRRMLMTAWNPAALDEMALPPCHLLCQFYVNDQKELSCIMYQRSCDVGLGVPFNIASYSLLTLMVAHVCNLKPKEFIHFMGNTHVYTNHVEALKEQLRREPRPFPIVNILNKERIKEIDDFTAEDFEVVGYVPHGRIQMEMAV

[3] = target: T3, Dihydrofolate reductase (Pneumocystis carinii, UniProt P16184)
T3 sequence (P16184 whole entry): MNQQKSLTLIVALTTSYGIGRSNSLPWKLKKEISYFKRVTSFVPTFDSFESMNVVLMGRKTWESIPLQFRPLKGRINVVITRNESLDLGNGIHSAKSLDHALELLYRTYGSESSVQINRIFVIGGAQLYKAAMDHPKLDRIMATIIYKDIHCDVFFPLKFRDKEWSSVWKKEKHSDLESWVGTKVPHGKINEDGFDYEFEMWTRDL
Description: Inhibitory activity against purified DHFR (Dihydrofolate reductase) from Pneumocystis carinii.

[4] = target: T1, Dihydrofolate reductase; assay: Inhibitory activity against purified dihydrofolate reductase from rat
[5] = target: T3, Dihydrofolate reductase; assay: Inhibitory activity against purified dihydrofolate reductase from Pneumocystis carinii.
[6] = target: T2, Bifunctional dihydrofolate reductase-thymidylate synthase; assay: Inhibitory activity against purified Dihydrofolate reductase from Toxoplasma gondii.
[7] = system: K562; assay: In vitro activity of compound against leukemia K-562 cell line; type: functional, Homo sapiens
[8] = system: NCI-H460; assay: In vitro activity of compound against non-small cell lung cancer NCI-H460; type: functional; settings: Homo sapiens
[9] = target: T2, Bifunctional dihydrofolate reductase-thymidylate synthase; assay: Inhibitory activity against purified DHFR (Dihydrofolate reductase) from Toxoplasma gondii

pIC50 [1]	pIC50 [3]	pIC50 [4]	pIC50 [5]	SMILES	pIC50 [2]	pIC50 [6]	other results
–	–	7.42	7.02	COc1cc(N(C)CC2CCc3nc(N)nc(N)c3C2)cc(OC)c1OC (stereo not given)	–	8.15	–
–	–	6.59	6.52	COc1ccc(OC)c(N(C)CC2CCc3nc(N)nc(N)c3C2)c1 (stereo not given)	–	7.82	–
–	–	6.25	5.78	COc1ccc(OC)c(NCC2CCc3nc(N)nc(N)c3C2)c1 (stereo not given)	–	6.74	–
–	–	7.13	6.92	C#CCN(CC1CCc2nc(N)nc(N)c2C1)c1cc(OC)c(OC)c(OC)c1 (stereo not given)	–	7.92	–
–	–	6.94	6.50	CCOc1ccc(OCC)c(N(C)CC2CCc3nc(N)nc(N)c3C2)c1 (stereo not given)	–	7.77	–
–	–	7.15	6.94	CCN(CC1CCc2nc(N)nc(N)c2C1)c1cc(OC)ccc1OC (stereo not given)	–	7.77	–

More lines, now with the values behind:

SMILES	pIC50 [1]	pIC50 [3]	pIC50 [4]	pIC50 [5]	pIC50 [2]	pIC50 [6]	other results
Nc1nc(N)c2c(n1)CCC(CNc1c(Cl)cccc1Cl)C2 (stereo not given)	6.96	6.30	–	–	8.00	–	–
COc1cc(CNCC2CCc3nc(N)nc(N)c3C2)cc(OC)c1OC (stereo not given)	–	–	4.90	4.73	–	–	–
COc1cc(NCC2CCc3nc(N)nc(N)c3C2)cc(OC)c1OC (stereo not given)	6.54	–	–	–	7.27	–	–
CN(CC1CCc2nc(N)nc(N)c2C1)c1ccc(Cl)cc1 (stereo not given)	–	–	7.17	6.77	–	7.66	–
CN(CC1CCc2nc(N)nc(N)c2C1)c1cccc2ccccc12 (stereo not given)	–	–	7.33	7.00	–	7.64	GI50 [7]: 0.04 µM
Nc1nc(N)c2c(n1)CCC(CNc1cc(Cl)ccc1Cl)C2 (stereo not given)	6.62	6.39	–	–	7.01	–	–
COc1cc(CN(C)CC2CCc3nc(N)nc(N)c3C2)cc(OC)c1OC (stereo not given)	5.79	5.51	–	–	6.48	–	–
Nc1nc(N)c2c(n1)CCC(CNc1ccc(Cl)c(Cl)c1)C2 (stereo not given)	–	–	6.82	5.17	–	6.96	–
Nc1nc(N)c2c(n1)CCC(CN1CCc3ccccc31)C2 (stereo not given)	6.80	6.68	–	–	7.57	–	–
Nc1nc(N)c2c(n1)CCC(CNc1ccc(Cl)cc1)C2 (stereo not given)	6.89	6.03	–	–	7.11	–	–
CCOc1ccc(OCC)c(NCC2CCc3nc(N)nc(N)c3C2)c1 (stereo not given)	5.83	5.80	–	–	6.85	–	–
Nc1nc(N)c2c(n1)CCC(CNc1cccc3ccccc13)C2 (stereo not given)	6.86	6.29	–	–	–	–	GI50 [8]: 0.05 µM; pIC50 [9]: 7.44
Nc1nc(N)c2c(n1)CCC(CNc1cccc(Br)c1)C2 (stereo not given)	–	–	6.64	6.48	–	7.52	–
CN(CC1CCc2nc(N)nc(N)c2C1)c1ccc(Cl)c(Cl)c1 (stereo not given)	–	–	7.47	6.61	–	7.68	–
